Reference: patent publication US20200181284A1, “EPIGENETIC INHIBITORS FOR SENSITIZING HEMATOLOGIC OR OTHER MALIGNANCIES TO GLUCOCORTICOID THERAPY” (UNIVERSITY OF SOUTHERN CALIFORNIA, priority 2017, published 2020)

Legend:
[1] = test system: NALM6 cells; assay: Immunoblot of apoptosis markers (cleaved caspase 3, caspase 7, PARP1) in NALM6 cells; assay type: cell-based, human; conditions: NALM6, 24-hour treatment with KDM inhibitor
Protocol: Cells were treated as indicated, and cell extracts were prepared in RIPA buffer ([…] Tris-HCl, pH 8, 150 mM NaCL, 1 mM EDTA, 1% NP-40, and 0.25% deoxycholate) supplemented with protease inhibitor tablets (Roche Molecular Biochemicals) and phosphatase inhibitors (1 mM NaF, 1 mM Na3VO4, and 1 mM β-glycerophosphate). Protein extracts were incubated overnight at 4° C. with shaking with 1 μg of antibodies against EHMT2 (Sigma G6919), EHMT1 (Millipore 09-078), or pan phospho-threonine (Millipore AB1607). Protein A/G plus agarose beads (Santa Cruz sc-2003) were added, and the mixture was incubated 2 h at 4° C. The immunoprecipitates were separated on SDS-PAGE. […]
FIGS. 40A, 40B, 40C, 40D-1, 40D-2, 40D-3, and 40D-4 show Aurora kinase B inhibitors sensitizing NALM6 cells to GC-induced cell death. As shown in FIGS. 40A and 40B, NALM6 cells were treated with the indicated dex concentration in addition to 0.75 μM ZM447439 (FIG. 40A), 16 nM AZD2811 (FIG. 40B), or equivalent volume of vehicle DMSO for 72 h, and cell survival was measured by a fluorescence metabolic assay. In each condition, the value measured with dex was normalized to the fluorescence value measured with ethanol. Percentage of survival is shown as the mean±SEM of 4 independent experiments and p-values for individual dex concentrations were calculated using a paired t-test. *p≤0.05, **p≤0.01, * * *p≤0.001. […]

[2] = test system: GR target genes in A549 cells; assay: RT-qPCR of endogenous GR target genes in A549 cells; assay type: cell-based, human; conditions: 2 μM added 1 h prior to 100 nM dex
Protocol: RNA was isolated using Trizol (Invitrogen) according to the manufacturer's instructions. Reverse transcription reaction was performed using iScript (Biorad) according to specifications with 0.8 μg of total RNA as template. Quantitative PCR amplification of the resulting cDNA was performed on a Roche LightCycler 480 using SYBR green I master mix (Roche). mRNA levels were normalized to the level of β-actin mRNA. Primer sequences are specified below in Tables 6 and 7.
The results as shown in FIGS. 21A-21E generally highlight that G9a and GLP act as coactivators for a subset of endogenous GR target genes. FIG. 21A is an immunoblot showing GLP, G9a and tubulin protein levels in whole cell extracts from A549 cells that were transduced with a control lentivirus encoding a non-specific shRNA (shNS) or lentivirus encoding an shRNA targeting GLP (shGLP). […] Results shown are mean±SEM for five independent experiments. p-value was calculated using a paired t-test. *p≤0.05, **p≤0.01. For FIGS. 21F-1, 21F-2, 21F-3, 21F-4, 21F-5, 21F-6, 21F-7, and 21F-8, mRNA levels for the indicated GR target genes were determined as in FIGS. 21D-1, 21D-2, 21D-3, 21D-4, 21D-5, 21D-6, 21D-7, and 21D-8, using A549 cells which were not transfected with siRNA. […] Results shown are mean±SEM for at least four independent experiments. p-value was calculated using a paired t-test. *p≤0.05, **p≤0.01.

| SMILES | dex-induced cleavage of caspase-3, caspase-7, and PARP1 [1] | induction of FKBP5, FOXO1 and CITED2 mRNAs by dex ([2]; G9a- and GLP-independent genes) | dex-induced CDH16, ENaCα, PPL, HSD11B2 and CDH1 mRNA levels ([2]; G9a/GLP-dependent genes) |
| --- | --- | --- | --- |
| Clc1ccc(N/N=C(\c2ccccc2)c2ccccn2)nc1 [JIB-04, 5-chloro-N-[(E)-[phenyl(pyridin-2-yl)methylidene]amino]pyridin-2-amine] | enhanced | – | – |
| COc1cc2c(Nc3ccc(NC(=O)c4ccccc4)cc3)ncnc2cc1OCCCN1CCOCC1 [ZM447439, N-[4-[[6-methoxy-7-(3-morpholin-4-ylpropoxy)quinazolin-4-yl]amino]phenyl]benzamide] | – | not significantly altered | significant increases |
